This data set relates to A549 cells. Kind of data set: Cytotoxicity, LDH-release assay on A549 cells. Conditions: 1% Triton X-100, 10 minutes at room temperature, positive control C+ set at 100%. The class given is cell-based, human. As to the method:
The cytotoxicity of all the conditions tested was evaluated on A549 cells by the LDH activity assay. Cells were seeded in 96 well plate at a density of 3×10^4cells/well: they were leaved at 37°C for 24h and then they were co-cultured with S-protein alone or in the presence of aluminium-based adjuvant or heat-inactivated probiotic strains for 24h. At the end of this incubation period, the release of LDH in the supernatants was evaluated by commercial colorimetric kit following manufacturer's instruction. The control included medium alone used as blank. The spectrophotometric absorbance was measured at 450nm wavelength using a microplate reader.

As to Triton X-100, the “release of LDH” value is “maximal release of LDH”.

These data come from patent EP4431111A1, “PROBIOTIC AS VACCINE IMMUNOADJUVANT” (COREE S.r.l., priority 2023, dated 2024).
